Here are results for 1 compound from PMC5077990, “P53 activation inhibits all types of hematopoietic progenitors and all stages of megakaryopoiesis” (Oncotarget, 2016).

Where two headings read alike, the source gives them in different places.

One series relates to Day 6-megakaryoblasts. The series is described as follows: Viability of day 6-megakaryoblasts. It counts as cell-based, human. To be noted: 0.5 μM, 72 hours. On the procedure: We also explored the effects of p53 stabilization at a later stage of megakaryocytic differentiation. […] Day 7-MKs were treated with 5 μM Nutlin 3a for 24 or 48 hours, which led to an increase in p53, p21, BAX, BCL2 and BCL-XL levels, confirming a functional p53 activity (Figure 6A). […] Similar results were found with day 6-megakaryoblasts treated with two doses of SAR405838 for 72 hours (Figure 6D/6E) without any major effect on the percentage of CD41^+ cells (Figure 6F). […] As shown in Figure 6D/6E, at the dose of 0.5 μM the SAR405838 induced a 50% decreased in the number of viable cells while the apoptotic cells reached 50% of the total cells. We checked if the effect of SAR405838 on MKs could be reverted by the addition of high TPO doses. CD34^+ progenitors were cultured in serum-free medium supplemented with SCF and low dose of TPO (1 ng/mL) for 6 days. Day 6-megakaryoblasts were then treated with 1.5 μM of SAR405838 for 48 hours and various doses of TPO.
In parallel, the expression of P53, BAK, BCL2L1, NOXA, PUMA, BAX, P21 and P53 were quantified by qRT-PCR related to HPRT. C. […] (n=3). D, E, F. Day 6-megakaryoblasts were exposed to MI-219 or SAR405838 (0.5 or 1 μM for 72 hours) and cell viability (D), apoptosis (E) or CD41 expression (F) were investigated. […] One representative experiment (n= 2). […]

The next series relates to Day 8-erythroblasts. The series is described as follows: Viable erythroblasts counted by Trypan blue exclusion. It counts as cell-based. As to conditions: Homo sapiens, day 8-erythroblasts treated 48 hours, read-out: IC50, decrease in viable cells.
Details of series [1]: method as in PMID 25145672. To be noted: cited from earlier work.
Series [2] concerns CD34+ progenitors cultured with SCF and TPO. The series is described as follows: Viable CD34+ progenitors at early stage of megakaryocytic differentiation, Trypan blue exclusion. It counts as cell-based. To be noted: Homo sapiens, read-out: IC50, decrease in number of viable cells. Here is the method: We explored the effect of p53 stabilization on the viability of CD34^+progenitors at early stages of megakaryocytic differentiation. CD34^+ progenitors were cultured for one day in serum-free medium supplemented with SCF and TPO and treated with SAR405838 or MI-219. After a 48 or 72 hour incubation, cells were counted by Trypan blue exclusion and apoptotic cells were quantified by flow cytometry using Annexin V / Propidium iodide labeling.
A. Cells were counted by Trypan blue exclusion.

The subject of series [3] is p53 target genes (MDM2, PUMA, P21) in CD34+ cells. The series is described as follows: qRT-PCR of p53 target genes in CD34+ cells. It counts as cell-based, human. To be noted: CD34+ cells cultured one day with TPO and SCF; doses 0.75 M, 1.5 μM, 2.5 μM and 5 μM. On the procedure:
To investigate the impact of p53 stabilization on hematopoietic progenitors, CD34^+ cells were cultured for one day in serum-free medium with TPO and SCF in the presence of the MDM2 antagonist SAR405838 before quantifying the p53 target genes by qRT-PCR.
Figure 1 Effects of SAR405838 on CD34+ progenitors A. Dose-effect of SAR405838 on p53 target genes by qRT-PCR. CD34^+ cells were treated or not with SAR405838 at various doses ([…], 1.5 μM, 2.5 μM and 5 μM). The expression of P53 and its targets (MDM2, PUMA, P21) were quantified by qRT-PCR related to PPIA. Results are the mean ± SEM of 2 independent experiments in duplicate. B, C, D. Cells were seeded in methylcellulose (B, C) or in fibrin clot (D) in the presence of MI-219 or SAR405838 to assay the number of BFU-E, CFU-GM and CFU-MK progenitors. Results are presented as percentage compared to control. Results represent the mean of 3 experiments for BFU-E and CFU-GM and 3 experiments for CFU-MK made in triplicate. * represents statistical significance using student t test (* P<0.05; **P<0.01; ***P<0.001).
PCRs were carried out in the ABI Prism GeneAmp 5700 (Perkin-Elmer) using the Power SYBR-Green PCR Master Mix (ABI) containing the specific primers. The expression levels of all genes were calculated relatively to HPRT or to PPIA housekeeping gene.

The subject of series [4] is p53 in day 8-erythroblasts. The series is described as follows: p53 expression by western-blot in day 8-erythroblasts. As to conditions: Homo sapiens, 192 h, read-out: p53 fold induction (western-blot).
Description: For that purpose, CD34^+ progenitors were cultured in serum-free medium with SCF and EPO for 8 days. SAR405838- or MI-219-treated erythroblasts were analyzed for p53 expression by western-blot. […] Day 8-erythroblasts were treated with various doses of SAR405838 or MI-219 for 48 hours.
Figure 4 Effect of SAR405838 on erythroid differentiation A. Day 8-erythroblasts treated with MI-219 or SAR405838 were analyzed for p53 expression by western-blot. β-actin was used as loading control.
Expression levels were performed by western-blot analysis using mouse anti-p53 and anti-β-actin (Sigma-Aldrich), anti-bax (Oncogene), anti-p21 (Beckton Dickenson), anti-Mdm2 (BD Pharmingen), anti-BCL-XL, and rat anti-HSC70 (Stressgen). Proteins were quantified by Image J software.
Series [5] concerns BFU-E (Burst Forming Unit-Erythroid) progenitors from CD34+ cells. The series is described as follows: Colony assay in methylcellulose, BFU-E. As to conditions: for IC50: Homo sapiens. It counts as cell-based, human. On the procedure: CD34^+cells were obtained from leukapheresis samples after mobilization of donors after informed consent in agreement with our Institute Ethic Committee (Assistance Publique des Hôpitaux de Paris) and in accordance with the Declaration of Helsinki. CD34^+cells were isolated by a positive selection using an immunomagnetic cell sorting system (AutoMacs; Miltenyi Biotec, Bergisch Gladbach, Germany). 500 to 1000 normal CD34^+cells were plated either in 1% methylcellulose assay (StemCells technologies, Vancouver, Canada) to quantify erythroid (BFU-E) and granulo-monocytic (CFU-GM) progenitors or in serum-free fibrin clot assay for quantification of MK progenitors (CFU-MK) in the absence or presence of various concentration of SAR405838 or MI-219. Cultures in methylcellulose were stimulated by addition of human recombinant growth factors: G-CSF (20 ng/mL), IL-3 (10 ng/mL) SCF (25 ng/mL, Biovitrum AB, Stockholm, Sweden), IL-6 (10 ng/mL), FLT3 (10 ng/mL) and human EPO (1 U/mL). Cultures in fibrin clot were stimulated with 10 ng/mL TPO (Kirin Brewery, Tokyo, Japan) and 25 ng/mL SCF. BFU-E and CFU-GM colonies were enumerated at day 14 of culture. CFU-MK colonies were enumerated at day 12 after labeling by an indirect immuno-alkaline phosphatase staining technique using an anti-CD41a monoclonal antibody (MoAb; Becton Dickinson, le Pont de Claix, France; clone HIP8), as previously described.

In the case of `CC(C)(C)C[C@@H]1N[C@@H](C(=O)N[C@H]2CC[C@H](O)CC2)[C@H](c2cccc(Cl)c2F)[C@]12C(=O)Nc1cc(Cl)ccc12` [SAR405838], in the series with Day 6-megakaryoblasts, the “decrease in the number of viable cells” value is reported as 50%. In addition, the IC50 is 500 nM with Day 8-erythroblasts; approximately 1500 nM in series [2] (48 hours of treatment); approximately 1500 nM in series [2] (72 hours of treatment); approximately 2000 nM in series [5] (72 h, CD34+ cells treated 3 days, washed, then plated in colony assay, read-out: IC50, reduction of BFU-E progenitors); 500 to 1000 nM in series [5] (CD34+ cells seeded in methylcellulose in the presence of compound, compared to untreated control, read-out: dose inducing a 50% reduction of BFU-E numbers). Also, the hematopoietic toxicity entry in series [1] was “reversible thrombocytopenia”. For the same compound, the “MDM2, PUMA and P21 expression (qRT-PCR related to PPIA)” value in series [3] is listed as “dose-dependent effect”. Further, the fold induction at 2 µM in series [4] was determined as 4.8. In series [4], the fold induction at 4 µM amounted to 4.5. Further, the “higher sensitivity of CD34+CD38- progenitors than CD34+CD38+ progenitors (BFU-E)” value in series [5] (sorted CD34+CD38- immature vs CD34+CD38+ committed cells) is 2 fold.
